{"source": "patent US20140309184A1", "about": "“METHODS AND COMPOSITIONS FOR THE TREATMENT OF OVARIAN CANCER” (UNIVERSITY OF SOUTH ALABAMA, priority 2011, published 2014)", "key": {"SHH": {"system": "SHH", "test": "Quantitative real time PCR in carboplatin treated SKOV3 cells", "format": "cell-based", "settings": "SKOV3, various concentrations of carboplatin", "method": "SKOV3 cells were treated with various concentrations of carboplatin and the levels of SHH, Smo, PTCH, and Gli1 determined using quantitative real time PCR. Carboplatin treatment unregulated SHH (FIG. 14)."}, "A2780/CP70 cells": {"system": "A2780/CP70 cells", "test": "Carboplatin IC50 with and without BMS-833923 in platinum resistant cell line", "format": "cell-based", "method": "(§1) Considering the synergy described above and that the Hedgehog pathway is associated with cancer stem cell properties. In the effect of BMS-833923 plus carboplatin in two isogenic ovarian cancer cell lines specifically designed to evaluate platinum resistance mechanisms: A2780 (platinum sensitive) & A2780/CP70 (platinum resistant). Each cell line was evaluated to determine the IC50 dose of carboplatin to ensure a discernable difference in platinum treatment could be determined (FIG. 11A). The A2780/CP70 cell line required a 4-fold increase in carboplatin to reach IC50 (A2780/CP70=400 μM; A2780=100 μM). […] (FIG. 11B and FIG. 11C)."}, "A2780 cells": {"system": "A2780 cells", "test": "Carboplatin IC50 in platinum sensitive cell line", "format": "cell-based", "settings": "read-out: IC50 dose of carboplatin", "method": "as §1"}, "[1]": {"test": "Percent body weight change in xenograft experiments", "format": "in vivo, SCID mice", "settings": "xenograft mice; BMS-833923 100 mg/kg i.p. daily, Carboplatin 40 mg/kg i.p. twice a week", "method": "(§2) Female SCID mice 6-8 weeks old were inoculated i.p. with 5×10^6 A2780 or A2780/CP70 cells suspended in 200 μL PBS (PH 7.4). Seven days later when the tumor reached a size of greater than 150 mm^3, the mice were randomly divided into 4 groups (8 mice per group) as follows: (1) PBS-treated control; (2) BMS-833923 alone (100 mg/kg, i.p. daily, two weeks); (3) Carboplatin alone (40 mg/kg, i.p. twice a week, two weeks); (4) Combination of BMS-833923 and Carboplatin treatment. Mice were weighed and tumor diameters were measured with calipers every 2-3 days for 20 days. The tumor volumes (mm^3) were calculated as (W^2×L)/2, where W and L are the minor and major diameters (in millimeters), respectively.\nXenograft experiments were performed as described above. […] However, under such dosage (100 mg/kg, i.p. daily, for two weeks), treatment with BMS-833923 appeared to have little effect on the growth of A2780 or A2780/CP70 xenografts in vivo (FIG. 13). […] However, this dosage has little effect on the growth of CP2780 xenografts in vivo."}, "CP2780 xenografts": {"system": "CP2780 xenografts", "test": "Xenograft tumor growth, carboplatin-resistant model", "format": "in vivo", "settings": "SCID mice; BMS-833923 100 mg/kg i.p. daily, Carboplatin 40 mg/kg i.p. twice a week, two weeks", "method": "as §2\n(§3) Xenograft experiments were performed as described above. Carboplatin was dosed days 7, 11, 14, 18; BMS-833923 was dosed days 8 through 20. The experiment was terminated due to excessive tumor size in vehicle and BMS-833923 treatment groups.\nThe CP2780 was derived from the A2780 Ovarian tumor xenograft model by selection for resistance to cisplatin. The CP2780 growth appeared to be more robust than observed for parental A2780 model (FIG. 12B). Average tumor volume doubling time for CP2780 was estimated at 2 days. Doubling time for parental A2780 tumor model was estimated at 3 days. […]"}, "SKOV3 cells": {"system": "SKOV3 cells", "test": "MTS cell survival with BMS-833923 plus chemotherapy, Calcusyn combination index", "format": "cell-based", "method": "An MTS in vitro assay was performed using chemotherapy agents commonly used for ovarian cancer (carboplatin, paclitaxel, gemcitabine, topotecan and liposomal doxorubicin) with or without BMS-833923. Ovarian cancer cells ES2, SKOV3, OV90 and TOV112D were seeded at a density of 4,000 cells/well in 96-well tissue culture plates. The following day, fresh medium was added to each well and treated with IC50 concentrations of BMS-833923 as well as the aforementioned chemotherapies and kept at 37° C. in a humidified 5% CO2 atmosphere. Every 24 hr, 20 μl/well of MTS reagent were added in 96 well plates and stored in 37° C. incubator for about 3 hr followed by absorbance reading at 490 nm. The assay was carried out up to 72 hrs at various concentrations described herein.\nWith a cross-diagonal multidrug treatment design, the combination index (CI) was calculated to determine mathematical synergy using the median effect method per Calcusyn software (Biosoft, Ferguson, Mo.). This software utilizes multiple drug dose-effect calculations using the Median Effect methods (Chou T. C., et al., Trends Pharmacol. Sci. 4, 450-454). […] The fraction of cells affected (Fa) by carboplatin and BMS-833923 was used to calculate dose response curves and the CI. Statistically Calcusyn quantifies phenomena such as synergism vs. additive effects as well as inhibition (antagonism). Calcusyn software defines synergy as a CI value<1 with the extent of synergism stratified as follows: Possible Synergy: 1.0-0.91; Moderate Synergy: […]; and Clear Synergy: 0.7-0.3. A CI=1 may be indicative of additivity; a CI>1 may be indicative of antagonism.\nCombination indices were calculated to determine mathematical synergy using the median effect method per Calcusyn software (Biosoft, Ferguson, Mo.) as described above. Monolayers of SKOV3 cells were contacted with various chemotherapeutic agents, and BMS-833923 in combination with various chemotherapeutic agents. The chemotherapeutic agents included Carboplatin, Taxol™, Gemzar™, Topotecan (Hycamtim™), and Doxil™. The percentage survival of the contacted SKOV3 cells was measured over 72 hours. Synergistic effects were calculated statistically using Calcusyn™ Software. A combination index (CI) less than 1 indicates synergy; a CI equal to 1 indicates additivity; a CI greater than 1 indicated antagonism.\nCombination indices were calculated to determine mathematical synergy using the median effect method per Calcusyn software (Biosoft, Ferguson, Mo.) as described above. […] Per prior definitions this represents Clear Synergy defined as CI<0.7. This level of synergy would result in a 2- to 14-fold reduction of carboplatin dose required with the addition of BMS-833923. (Table 5 and FIG. 9).\nThe dose reduction index (DRI) was determined for experimental values using the Calcusyn software package, with the relative CI and the fraction affected to determine the relative reduction in a dose to achieve similar effects with a single agent (Table 6)."}, "A2780 xenografts": {"system": "A2780 xenografts", "test": "Xenograft tumor growth, carboplatin-sensitive model", "format": "in vivo", "settings": "SCID mice; BMS-833923 100 mg/kg i.p. daily, Carboplatin 40 mg/kg i.p. twice a week, two weeks", "method": "as §2, §3"}, "[2]": {"test": "MTD for combination therapy", "format": "in vivo", "settings": "BMS-833923 + carboplatin given together; previously demonstrated", "excerpt": "Treatment with BMS-833923 appeared to have little effect on the growth of A2780 xenografts in vivo."}}, "note": "pIC50: −log10 of the molar value."}
{"compound": "N.N.O=C([O-])C1(C(=O)[O-])CCC1.[Pt+2]", "note": "[Carboplatin, carboplatin]", "values": [{"measurement": "SHH mRNA level", "setting": "SHH", "value": "unregulated"}, {"measurement": "increase in carboplatin to reach IC50, A2780/CP70 versus A2780", "setting": "A2780/CP70 cells", "value": 4, "unit": "fold"}, {"measurement": "pIC50", "setting": "A2780/CP70 cells; A2780/CP70 (platinum resistant), read-out: IC50 dose of carboplatin", "value": 3.40}, {"measurement": "pIC50", "setting": "A2780 cells", "value": 4.00}, {"measurement": "Percent body weight change", "setting": "[1]", "value": "Combination<Carboplatin alone<BMS-833923 alone"}, {"measurement": "effect on growth of CP2780 (A2780/CP70) xenografts in vivo", "setting": "CP2780 xenografts", "value": "little effect"}, {"measurement": "Carboplatin DRI", "setting": "SKOV3 cells; fraction affected 16.6%", "value": 14.869}, {"measurement": "Carboplatin single agent dose to achieve the fraction affected", "setting": "SKOV3 cells; fraction affected 16.6%", "value": 892.1349, "unit": "µM"}, {"measurement": "Carboplatin DRI", "setting": "SKOV3 cells; fraction affected 29.1%", "value": "8.06e+006"}, {"measurement": "Carboplatin single agent dose to achieve the fraction affected", "setting": "SKOV3 cells; fraction affected 29.1%", "value": "5.642e+08", "unit": "µM"}, {"measurement": "Carboplatin DRI", "setting": "SKOV3 cells; fraction affected 38.4%", "value": "2.07e+010"}, {"measurement": "Carboplatin single agent dose to achieve the fraction affected", "setting": "SKOV3 cells; fraction affected 38.4%", "value": "1.243e+12", "unit": "µM"}, {"measurement": "Carboplatin DRI", "setting": "SKOV3 cells; fraction affected 41.8%", "value": "2.45e+011"}, {"measurement": "Carboplatin single agent dose to achieve the fraction affected", "setting": "SKOV3 cells; fraction affected 41.8%", "value": "1.716e+13", "unit": "µM"}, {"measurement": "effect on growth of A2780 xenografts in vivo", "setting": "A2780 xenografts", "value": "inhibited growth"}, {"measurement": "MTD for combination therapy", "setting": "[2]", "value": 40, "unit": "mg/kg"}]}
